Measurements taken from patent US6087119A, “Method for determining the catalytic activity of factor IXa” (Roche Diagnostics GmbH, priority 1996, dated 2000).
Square brackets hold non-standard residues; d marks the D form. Peptide text beside a SMILES is read from it. * marks the point of attachment. dChg = N[C@@H](C(=O)O)C1CCCCC1; pNA = O=[N+]([O-])c1ccc(N*)cc1; dNle = CCCC[C@@H](N)C(=O)O; Ms = CS(=O)(=O)*; Moc = COC(=O)*

How the values were obtained:
Assay type in all cases: biochemical
[1] = target: native FIXa (human) (Homo sapiens, UniProt P00740); test: Kinetics of cleavage of chromogenic peptide substrate by native FIXa with ethylene glycol (Lineweaver Burk); parameters: 0.14 μmol/l native FIXa (human); settings: native FIXa 0.29 μmol/l, pH 7.4
Protocol: (§1) MeSO2 -D-HHT-Gly-Arg-pNA (0.102-1.02 mmol/l)
0.29 μmol/l native FIXa (human)
(§2) The kinetic constants (Kcat /Km) were determined graphically according to Lineweaver Burk (Km and Kcat cannot be determined separately since the straight lines go through the origin).

[2] = target: T1, rFIXa (human) (Homo sapiens, UniProt P00740); test: Kinetics of cleavage of chromogenic peptide substrates by rFIXa with ethylene glycol (Lineweaver Burk); parameters: coding for the FIX protease domain from amino acid position 181 to 415; Met (ATG start codon) (N); made in house; settings: pH 7.4
Protocol: as §1
Target sequence in this assay (P00740 227-461): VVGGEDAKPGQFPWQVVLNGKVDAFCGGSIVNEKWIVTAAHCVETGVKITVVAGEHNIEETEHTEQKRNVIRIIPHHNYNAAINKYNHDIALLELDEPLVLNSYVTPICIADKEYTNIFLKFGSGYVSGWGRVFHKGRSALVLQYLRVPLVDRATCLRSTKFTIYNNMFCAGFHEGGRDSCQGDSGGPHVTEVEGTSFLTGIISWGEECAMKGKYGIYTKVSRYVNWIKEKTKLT
Target sequence in this assay (P00740 131-226): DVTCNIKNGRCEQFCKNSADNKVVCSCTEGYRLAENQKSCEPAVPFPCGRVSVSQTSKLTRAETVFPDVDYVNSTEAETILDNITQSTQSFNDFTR
0.48 μmol/l rFIXa (human)
MOC-D-Nle-Gly-Arg-pNA (0.102-1.02 mmol/l)
MeSO2 -D-CHG-Gly-Arg-pNA (0.102-1.02 mmol/l)
0.28 μmol/l rFIXa (human)
as §2

[3] = target: T1, rFIXa (human); test: Influence of known protease inhibitors on the activity of rFIXa; parameters: coding for the FIX protease domain from amino acid position 181 to 415; Met (ATG start codon) (N); made in house
Protocol: Specific FIXa inhibitors can be identified by the inhibition of FIXa activity. For this purpose the FIXa activity is determined with a substrate of the R-D-Xxx-Gly-Arg-pNA type (Xxx=hydrophobic amino acid) in the absence and presence of the substance to be tested or of a substance mixture and the percentage inhibition is calculated from the quotients. The inhibition constant Ki is determined from the inhibition kinetics. The measurement signal is amplified by the presence of high concentrations of certain alcohols (preferably ethylene glycol).
200 μl buffer (100 mmol/l Tris-HCl, 100 mmol/l NaCl, 5 mmol/l CaCl2, 20-40% alcohol, pH 7-9) the buffer contains the inhibitor at various concentrations […]
The reaction can also be terminated after 5-10 min by stopping with acetic acid (25 μl, 50%), the absorbance is determined at 405 nm against a reagent blank.
Influence of Known Protease Inhibitors on the Activity of rFIXa Using Different pHs, Alcohols and Alcohol Concentrations 42 mmol/l Tris-HCl, pH 7.4 or 8.5 substrate MeSO2 -D-CHG-Gly-Arg-pNA (1.02 mmol/l) […]
inhibitor at stepped concentrations (4.1-163 μmol/l)
Known synthetic inhibitors of the 3-amidinophenylalanine type were used as inhibitors (Sturzebecher et al, J. Enzyme. Inhibition 9 (1995) 87 and WO 92/08709) (1991)). The inhibitory effect was examined at a low and at a high alcohol concentration as an example.
Target sequence in this assay (P00740 227-461 limits assumed): as the sequence (P00740 227-461) above
Target sequence in this assay (P00740 131-226 limits assumed): as the sequence (P00740 131-226) above

Chain of native FIXa (human) (P00740 227-461 limits assumed): as the sequence (P00740 227-461) above
Chain of native FIXa (human) (P00740 47-191 partner limits assumed): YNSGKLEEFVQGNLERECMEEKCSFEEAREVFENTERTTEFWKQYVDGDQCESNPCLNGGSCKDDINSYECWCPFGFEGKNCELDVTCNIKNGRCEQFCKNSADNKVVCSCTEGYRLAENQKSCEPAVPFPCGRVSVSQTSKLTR

SMILES: CS(=O)(=O)N[C@H](CC1CCC(O)CC1)C(=O)NCC(=O)N[C@@H](CCCNC(=N)N)C(=O)Nc1ccc([N+](=O)[O-])cc1 (stereo partly drawn) [MeSO2 --D--HHT--Gly--Arg--pNA, MeSO2 -D-HHT-Gly-Arg-pNA]
- kkat /Km ([1]; 8% ethylene glycol): 299 M⁻¹ s⁻¹
- kkat /Km ([1]; 16% ethylene glycol): 737 M⁻¹ s⁻¹
- kkat /Km ([1]; 25% ethylene glycol): 1169 M⁻¹ s⁻¹
- kkat /Km ([1]; 33% ethylene glycol): 1395 M⁻¹ s⁻¹
- kkat /Km ([1]; 41% ethylene glycol): 922 M⁻¹ s⁻¹
- kkat /Km ([1]; 50% ethylene glycol): 390 M⁻¹ s⁻¹
- kkat /Km ([2]; rFIXa 0.48 μmol/l, 8% ethylene glycol): 348 M⁻¹ s⁻¹
- kkat /Km ([2]; rFIXa 0.48 μmol/l, 16% ethylene glycol): 515 M⁻¹ s⁻¹
- kkat /Km ([2]; rFIXa 0.48 μmol/l, 25% ethylene glycol): 1018 M⁻¹ s⁻¹
- kkat /Km ([2]; rFIXa 0.48 μmol/l, 33% ethylene glycol): 1018 M⁻¹ s⁻¹
- kkat /Km ([2]; rFIXa 0.48 μmol/l, 41% ethylene glycol): 692 M⁻¹ s⁻¹
- kkat /Km ([2]; rFIXa 0.48 μmol/l, 50% ethylene glycol): 172 M⁻¹ s⁻¹

SMILES: CCCC[C@@H](NC(=O)OC)C(=O)NCC(=O)N[C@@H](CCCNC(=N)N)C(=O)Nc1ccc([N+](=O)[O-])cc1 [MOC--D--Nle--Gly--Arg--pNA, MOC-D-Nle-Gly-Arg-pNA] (Moc-[dNle]-Gly-Arg-pNA)
- kkat /Km ([2]; substrate MOC-D-Nle-Gly-Arg-pNA, rFIXa 0.48 μmol/l, 16% ethylene glycol): 326 M⁻¹ s⁻¹
- kkat /Km ([2]; substrate MOC-D-Nle-Gly-Arg-pNA, rFIXa 0.48 μmol/l, 25% ethylene glycol): 565 M⁻¹ s⁻¹
- kkat /Km ([2]; substrate MOC-D-Nle-Gly-Arg-pNA, rFIXa 0.48 μmol/l, 33% ethylene glycol): 552 M⁻¹ s⁻¹
- kkat /Km ([2]; substrate MOC-D-Nle-Gly-Arg-pNA, rFIXa 0.48 μmol/l, 41% ethylene glycol): 360 M⁻¹ s⁻¹
- kkat /Km ([2]; substrate MOC-D-Nle-Gly-Arg-pNA, rFIXa 0.48 μmol/l, 50% ethylene glycol): 148 M⁻¹ s⁻¹

SMILES: N=C(N)c1cccc(CC(NS(=O)(=O)c2ccc3ccccc3c2)C(=O)N2Cc3ccccc3CC2C(=O)O)c1 (centres unmarked) [βNAPS-(3-Am)Phe-TIC-OH, Nα-(2-naphthylsulfonyl)-3-amidino-(D,L)-phenylalanine-1,2,3,4-tetrahydroisoquinoline-3-carboxylic acid]
- Inhibition of the activity of factor IXa (in %) ([3]; inhibitor 4.1 μmol/l, pH 7.4, 4.1% ethanol, 0.57 μmol/l rFIXa): 97.2%
- Inhibition of the activity of factor IXa (in %) ([3]; inhibitor 4.1 μmol/l, pH 7.4, 33% ethylene glycol, 0.057 μmol/l rFIXa): 100%
- Inhibition of the activity of factor IXa (in %) ([3]; inhibitor 4.1 μmol/l, pH 8.5, 4.1% ethanol, […] rFIXa): 100%
- Inhibition of the activity of factor IXa (in %) ([3]; inhibitor 4.1 μmol/l, pH 8.5, 33% ethylene glycol, […] rFIXa): 100%
- Inhibition of the activity of factor IXa (in %) ([3]; inhibitor 8.2 μmol/l, pH 7.4, 4.1% ethanol, 0.57 μmol/l rFIXa): 97.2%
- Inhibition of the activity of factor IXa (in %) ([3]; inhibitor 8.2 μmol/l, pH 7.4, 33% ethylene glycol, 0.057 μmol/l rFIXa): 100%
- Inhibition of the activity of factor IXa (in %) ([3]; inhibitor 8.2 μmol/l, pH 8.5, 4.1% ethanol, […] rFIXa): 96.2%
- Inhibition of the activity of factor IXa (in %) ([3]; inhibitor 8.2 μmol/l, pH 8.5, 33% ethylene glycol, […] rFIXa): 97.9%
- Inhibition of the activity of factor IXa (in %) ([3]; inhibitor 16.3 μmol/l, pH 7.4, 4.1% ethanol, 0.57 μmol/l rFIXa): 88.2%
- Inhibition of the activity of factor IXa (in %) ([3]; inhibitor 16.3 μmol/l, pH 7.4, 33% ethylene glycol, 0.057 μmol/l rFIXa): 85.4%
- Inhibition of the activity of factor IXa (in %) ([3]; inhibitor 16.3 μmol/l, pH 8.5, 4.1% ethanol, […] rFIXa): 86.2%
- Inhibition of the activity of factor IXa (in %) ([3]; inhibitor 16.3 μmol/l, pH 8.5, 33% ethylene glycol, […] rFIXa): 88.4%
- Inhibition of the activity of factor IXa (in %) ([3]; inhibitor 40.8 μmol/l, pH 7.4, 4.1% ethanol, 0.57 μmol/l rFIXa): 75.4%
- Inhibition of the activity of factor IXa (in %) ([3]; inhibitor 40.8 μmol/l, pH 7.4, 33% ethylene glycol, 0.057 μmol/l rFIXa): 62.6%
- Inhibition of the activity of factor IXa (in %) ([3]; inhibitor 40.8 μmol/l, pH 8.5, 4.1% ethanol, […] rFIXa): 77.5%
- Inhibition of the activity of factor IXa (in %) ([3]; inhibitor 40.8 μmol/l, pH 8.5, 33% ethylene glycol, […] rFIXa): 78.4%
- Inhibition of the activity of factor IXa (in %) ([3]; inhibitor 81.6 μmol/l, pH 7.4, 4.1% ethanol, 0.57 μmol/l rFIXa): 57.0%
- Inhibition of the activity of factor IXa (in %) ([3]; inhibitor 81.6 μmol/l, pH 7.4, 33% ethylene glycol, 0.057 μmol/l rFIXa): 41.0%
- Inhibition of the activity of factor IXa (in %) ([3]; inhibitor 81.6 μmol/l, pH 8.5, 4.1% ethanol, […] rFIXa): 63.8%
- Inhibition of the activity of factor IXa (in %) ([3]; inhibitor 81.6 μmol/l, pH 8.5, 33% ethylene glycol, […] rFIXa): 66.0%
- Inhibition of the activity of factor IXa (in %) ([3]; inhibitor 163 μmol/l, pH 7.4, 4.1% ethanol, 0.57 μmol/l rFIXa): 25.7%
- Inhibition of the activity of factor IXa (in %) ([3]; inhibitor 163 μmol/l, pH 7.4, 33% ethylene glycol, 0.057 μmol/l rFIXa): 28.9%
- Inhibition of the activity of factor IXa (in %) ([3]; inhibitor 163 μmol/l, pH 8.5, 4.1% ethanol, […] rFIXa): 48.8%
- Inhibition of the activity of factor IXa (in %) ([3]; inhibitor 163 μmol/l, pH 8.5, 33% ethylene glycol, […] rFIXa): 45.4%

SMILES: CS(=O)(=O)N[C@@H](C(=O)NCC(=O)N[C@@H](CCCNC(=N)N)C(=O)Nc1ccc([N+](=O)[O-])cc1)C1CCCCC1 [MeSO2 --D--CHG--Gly--Arg--pNA, MeSO2 -D-CHG-Gly-Arg-pNA] (Ms-[dChg]-Gly-Arg-pNA)
- kkat /Km ([2]; substrate MeSO2-D-CHG-Gly-Arg-pNA, rFIXa […], 8% ethylene glycol): 637 M⁻¹ s⁻¹
- kkat /Km ([2]; substrate MeSO2-D-CHG-Gly-Arg-pNA, rFIXa […], 16% ethylene glycol): 1974 M⁻¹ s⁻¹
- kkat /Km ([2]; substrate MeSO2-D-CHG-Gly-Arg-pNA, rFIXa […], 25% ethylene glycol): 2880 M⁻¹ s⁻¹
- kkat /Km ([2]; substrate MeSO2-D-CHG-Gly-Arg-pNA, rFIXa […], 33% ethylene glycol): 3480 M⁻¹ s⁻¹
- kkat /Km ([2]; substrate MeSO2-D-CHG-Gly-Arg-pNA, rFIXa […], 41% ethylene glycol): 1929 M⁻¹ s⁻¹
- kkat /Km ([2]; substrate MeSO2-D-CHG-Gly-Arg-pNA, rFIXa […], 50% ethylene glycol): 576 M⁻¹ s⁻¹
